16 molecules from patent US20070027093A1, “Anorectic” (Japan Tobacco Inc., priority 2004, published 2007) can be followed below.

One assay has as its system SD(IGS) rats. In words: Evaluation of compounds' effect on food consumption in rats. The format is in vivo. To be noted: Rattus norvegicus, fasted SD(IGS) rats, high fat diet; for inhibition in vivo at 1 mg/kg: 1 mg/kg oral; for inhibition in vivo at 10 mg/kg: 10 mg/kg oral. The text has this: Evaluation of Compounds' Effect on Food Consumption in Rats
SD(IGS) rats (Charles River Japan, Inc., 5-10 weeks of age, male) were used for the pharmacological tests. Rats were individually housed in the room set to a light cycle of lights-out at 10 am and lights-on at 10 pm, and were adapted to high fat diet (35% w/w). They were acclimated for more than 10 days prior to experiments under these conditions.
Based on the food consumption during acclimation and the body weight on the day of experiment, rats were grouped with no difference between groups.
As the test compound, Compounds A-P were used. These test compounds were suspended in 0.5% methyl cellulose solution.
Rats were fasted for about 24 hours before experiment. Each dose of the test compound was orally administered just after the lights-out, and immediately thereafter, the feeding of the high fat diet was resumed. The food weight was measured at 1, 4 and 8 hours after the resumption of the feeding to obtain the cumulative food consumption. The inhibitory rate on food consumption was determined by the following formula using the weight of the cumulative food consumption in each group.
The inhibitory rate on food consumption (%)=(1-test compound group/vehicle group)×100

The target in a further assay is T1, human DGAT1 (Homo sapiens, UniProt O75907).
T1 construct: FLAG (N); made in house; host or cells: Sf21 insect cells (baculovirus, Bac-to-Bac system); cell membrane fraction
T1 sequence (O75907 1-488): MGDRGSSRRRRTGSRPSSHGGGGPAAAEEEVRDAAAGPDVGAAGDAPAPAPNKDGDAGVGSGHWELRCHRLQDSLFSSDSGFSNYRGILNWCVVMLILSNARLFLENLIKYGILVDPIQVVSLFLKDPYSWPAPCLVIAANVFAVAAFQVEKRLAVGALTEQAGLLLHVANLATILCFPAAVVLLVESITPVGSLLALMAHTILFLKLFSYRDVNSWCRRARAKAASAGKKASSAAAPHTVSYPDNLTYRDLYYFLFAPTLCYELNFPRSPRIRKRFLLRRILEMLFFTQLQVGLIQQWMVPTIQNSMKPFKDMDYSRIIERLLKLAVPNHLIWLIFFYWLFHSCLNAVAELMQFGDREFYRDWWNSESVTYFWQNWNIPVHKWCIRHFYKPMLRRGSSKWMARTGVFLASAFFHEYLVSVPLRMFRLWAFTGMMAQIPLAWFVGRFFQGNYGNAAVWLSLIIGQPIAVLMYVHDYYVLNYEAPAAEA
In words: Assay of DGAT1 enzyme inhibitory activity (Scintillation Proximity Assay). It counts as biochemical. The settings on record: human DGAT1 membrane fraction from Sf21 cells, 200 μM dioleoyl glycerol, 25 μM 14C decanoyl CoA, SPA; read-out: DGAT1 enzyme inhibitory activity (IC50 class). On the technique in general: SPA uses beads or plates that emit light when radiolabelled molecules are held near them.

Setting [1] is: cumulative food consumption 1 h after resumption of feeding, read-out: inhibitory rate on food consumption, 1 h.
Where [2] appears, read: cumulative food consumption 4 h after resumption of feeding, read-out: inhibitory rate on food consumption, 4 h.
Where [3] appears, read: cumulative food consumption 8 h after resumption of feeding, read-out: inhibitory rate on food consumption, 8 h.

Like-named read-outs stand apart in the source and are kept apart here.

Procedure for human DGAT1: The enzyme source used for the assay was prepared using a human DGAT1 cDNA isolated from the human liver cDNA library. To be specific, a restriction enzyme cleaving sequence and a flag-labeling sequence were added onto the 5′ side and a restriction enzyme cleaving sequence was added onto the 3′ side of the human DGAT1 cDNA by PCR, and human flag tag DGAT1 baculovirus was prepared using Bac-to-Bac Baculovirus Expression System (Invitrogen). Sf21 insect cells were infected for 24-72 hours, recovered and ruptured in a homogenizing buffer using a microfluidizer. The homogenate was centrifuged at 45,000 rpm for 1 hour, and the cell membrane fractions were recovered and used as an enzyme source.
The DGAT inhibitory activity was measured by Scintillation Proximity Assay (SPA). Human DGAT1 membrane fraction (0.25 μg/well) was mixed with various concentrations of the compound and 200 μM of dioleoyl glycerol (enzyme substrate). […] Wheat Germ Agglutinin (WGA) SPA beads-suspended 6 mM HgCl2 (25 μL) was added to terminate the reaction, and the reaction mixture was kept at room temperature for 2 hours to allow adhesion of produced TG onto the SPA beads together with the cell membrane. The mixture was centrifuged at 2,500 rpm for 5 min to precipitate the SPA beads. The radioactivity was measured using Top Count.

As for `Cc1nc(N)c2c(n1)OC(C)(C)C(c1ccc([C@H]3CC[C@H](CNC(=O)CO)CC3)cc1)=N2` [Compound E], the inhibition in vivo at 1 mg/kg with SD(IGS) rats (setting [1]) was 6%; in the assay with SD(IGS) rats (setting [2]) it was 15%; in the assay with SD(IGS) rats (setting [3]) it was 20%.

Regarding `CC1(C)Oc2ncnc(N)c2C=C1c1ccc2c(c1)CC[C@]21CC[C@@H](CC(=O)O)CC1` [Compound P], the inhibition in vivo at 1 mg/kg was found to be 20% in the assay with SD(IGS) rats (setting [1]), 36% with SD(IGS) rats (setting [2]) and 28% in the assay on SD(IGS) rats (setting [3]).

For `Cc1nc(N)c2c(n1)OC(C)(C)C(c1ccc([C@H]3CC[C@H](CCc4nc(=O)on4C)CC3)cc1)=N2` [Compound F], the inhibition in vivo at 1 mg/kg stood at 11% with SD(IGS) rats (setting [1]), 20% with SD(IGS) rats (setting [2]) and 13% with SD(IGS) rats (setting [3]).

For `Cc1nc(N)c2c(n1)OC(C)(C)C(c1ccc([C@H]3CC[C@H](CC(=O)O)CC3)cc1)=N2` [Compound D], the inhibition in vivo at 1 mg/kg with SD(IGS) rats (setting [1]) worked out at 50%; in the assay on SD(IGS) rats (setting [2]), 27%; in the assay on SD(IGS) rats (setting [3]) it was 17%.

Regarding `Cc1nc(N)c2c(n1)OC(C)(C)C(c1ccc([C@H]3CC[C@H](CNC(=O)C(C)(C)CO)CC3)cc1)=N2` [Compound G], the figures for the inhibition in vivo at 1 mg/kg with SD(IGS) rats (setting [1]), in the assay on SD(IGS) rats (setting [2]) and in the assay with SD(IGS) rats (setting [3]) were 29%, 19% and 15%, respectively.

As to `CC1(C)Oc2nc(C(F)(F)F)nc(N)c2N=C1c1ccc([C@H]2CC[C@H](CNC(N)=O)CC2)c(Cl)c1` [Compound N], the inhibition in vivo at 1 mg/kg in the assay with SD(IGS) rats (setting [1]) was 17%; in the assay on SD(IGS) rats (setting [2]), 6%; in the assay on SD(IGS) rats (setting [3]) it was 7%.

Regarding `Cc1nc(N)c2c(n1)OC(C)(C)C(c1ccc([C@H]3CC[C@H](CN4CCCC(O)C4=O)CC3)cc1)=N2` (some centres unmarked) [Compound L], the values for the inhibition in vivo at 1 mg/kg in the assay on SD(IGS) rats (setting [1]), in the assay on SD(IGS) rats (setting [2]) and in the assay with SD(IGS) rats (setting [3]) were 10%, 16% and 9%, respectively. Moreover, the IC50 at human DGAT1 fell in the range of 10 to 100 nM.

For the molecule `Cc1nc(N)c2c(n1)OC(C)(C)C(c1ccc([C@H]3CC[C@H](CNC(=O)CO)CC3)c(Cl)c1)=N2` [Compound H], the figures for the inhibition in vivo at 1 mg/kg in the assay on SD(IGS) rats (setting [1]), in the assay on SD(IGS) rats (setting [2]) and with SD(IGS) rats (setting [3]) were 36%, 36% and 20%, respectively.

With `CC1(C)Oc2nc(C(F)(F)F)nc(N)c2N=C1c1ccc([C@H]2CC[C@H](CC(=O)O)CC2)c(Cl)c1` [Compound M], the inhibition in vivo at 1 mg/kg turned out to be 26% in the assay on SD(IGS) rats (setting [1]), 12% in the assay with SD(IGS) rats (setting [2]) and 14% in the assay with SD(IGS) rats (setting [3]).

Consider `Cc1nc(N)c2c(n1)OC(C)(C)C(c1ccc([C@H]3CC[C@H](CNC(N)=O)CC3)c(Cl)c1)=N2` [Compound O], for which the results for the inhibition in vivo at 1 mg/kg in the assay on SD(IGS) rats (setting [1]), in the assay on SD(IGS) rats (setting [2]) and in the assay on SD(IGS) rats (setting [3]) were 20%, 13% and 12%, respectively.

For the molecule `Cc1nc(N)c2c(n1)OC(C)(C)C(c1ccc([C@H]3CC[C@H](CNC(=O)C(C)(C)O)CC3)cc1)=N2` [Compound I], the inhibition in vivo at 1 mg/kg in the assay on SD(IGS) rats (setting [1]) was found to be 30%; in the assay on SD(IGS) rats (setting [2]), 1%; in the assay with SD(IGS) rats (setting [3]) it was 4%.

For the molecule `Cc1nc(N)c2c(n1)OC(C)(C)C(c1ccc([C@H]3CC[C@H](Cc4nc(=O)o[nH]4)CC3)cc1)=N2` [Compound J], the inhibition in vivo at 1 mg/kg in the assay on SD(IGS) rats (setting [1]) was 8%; in the assay with SD(IGS) rats (setting [2]), 23%; with SD(IGS) rats (setting [3]) it was 10%.

`CCCc1c(C(=O)OCC)c(C(=O)OCC)c2c(-c3ccccc3)cc(N3CCOCC3)nn12` [Compound B, Diethyl 2-morpholin-4-yl-4-phenyl-7-propylpyrrolo[1,2-b]pyridazine-5,6-dicarboxylate]: the inhibition in vivo at 10 mg/kg came to 26% with SD(IGS) rats (setting [1]), 14% in the assay on SD(IGS) rats (setting [2]) and 4% in the assay with SD(IGS) rats (setting [3]). In addition, at human DGAT1, the IC50 was more than 100 nM.

For `CC1(C)Oc2nc(C(F)(F)F)nc(N)c2N=C1c1ccc2c(c1)CCC21CCC(CC(=O)O)CC1` (centres unmarked) [Compound K], the inhibition in vivo at 1 mg/kg in the assay on SD(IGS) rats (setting [1]) worked out at 19%; in the assay with SD(IGS) rats (setting [2]), 37%; with SD(IGS) rats (setting [3]), 22%.

On to `CC1(C)Oc2ncnc(N)c2N=C1c1ccc([C@H]2CC[C@H](CC(=O)O)CC2)cc1` [Compound A], for which the results for the inhibition in vivo at 10 mg/kg with SD(IGS) rats (setting [1]), in the assay with SD(IGS) rats (setting [2]) and with SD(IGS) rats (setting [3]) were 29%, 37% and 30%, respectively.

In the case of `CC1(C)Oc2ncnc(N)c2N=C1c1ccc([C@H]2CC[C@H](CC(=O)O)CC2)cc1` [Compound C], the inhibition in vivo at 1 mg/kg with SD(IGS) rats (setting [1]) worked out at 24%; with SD(IGS) rats (setting [2]), 30%; in the assay on SD(IGS) rats (setting [3]) it was 19%.

Broadly, the IC50 is the midpoint of a concentration-inhibition curve.
